Measured values published in patent US20210106566A1, “PHARMACEUTICAL COMPOSITION FOR TREATING AND/OR PREVENTING PERIPHERAL NEUROPATHY OR SPINAL CORD INJURY” (NATIONAL UNIVERSITY CORPORATION NAGOYA UNIVERSITY, priority 2015, published 2021).

System: Bdnf, Ngf, Ntf4, Ntrk1, Ntrk2, Map2, Mapt, Gap43
Assay: Mouse sciatic nerve autologous transplantation model: mRNA in sciatic nerve segment
Assay type: in vivo
Details: sciatic nerve segment distal to the distal transection site, 8 weeks after surgery
Description: Adult male C57BL/6J mice (8 weeks old; 19.5-22.0 g) were purchased from Charles River. The mice were anesthetized with isoflurane and underwent gluteal muscle incision under a sterile condition to expose the sciatic nerve in the left leg. The sciatic nerve was cut at the following two sites (1) and (2): (1) the site 3 mm distal to the first bifurcation of biceps femoris (hereinafter referred to as proximal transection site) (2) the site 3 mm distal to the proximal transection site (hereinafter referred to as distal transection site) The excised nerve segment with a length of 3 mm was confirmed to be completely cut at the two sites. The perineurium was sutured with nylon thread (10-0 black) at the proximal transection site and the distal transection site under a microscope. The remaining thread was used as a marker for finding the nerve transection site in the sacrifice of the mice. In order to reduce DMSO toxicity, a solution of 60 mg/mL zonisamide in 100% DMSO was prepared and the solution was diluted in olive oil to give a solution of 3 mg/mL zonisamide in 5% DMSO. The control solution (5% DMSO) or zonisamide (3 mg/mL×about 0.2 mL) at 30 mg/kg/day was administered to the stomach using a disposable probe needle (flexible type, Fuchigami) once a day for 1 to 8 weeks from the end of surgery until sacrifice. Myelin sheath formation in the sciatic nerve was analyzed in six mice in each group. One week after the sciatic nerve autologous transplantation, the sciatic nerve was transected at “the proximal transection site” and “the site 3 mm distal to the distal transection site” to excise a nerve segment with a length of 6 mm. Subsequently, the nerve segment was fixed in 2% paraformaldehyde/2.5% glutaraldehyde in 0.2 mol/L sodium cacodylate buffer pH 7.3 overnight, treated with 2% osmium tetroxide for 3 hours, and dehydrated in ethanol. After epon embedding, a semithin section (with a thickness of 1 μm) was cut at the position 0.7 mm distal to the distal transection site, stained with alkaline Toluidine blue (Sigma), and examined under a microscope (FSX100, Olympus). The number and area of myelinated axons in the sciatic nerve were manually measured using ImageJ software in a blinded fashion. Eight weeks after sciatic nerve autologous transplantation, the entire gastrocnemius muscle and a sciatic nerve segment between the distal transection site and the site 3 mm distal to the distal transection site were isolated for total RNA extraction. Similar sciatic nerve segment was also isolated from the hindlimb without transected sciatic nerve. The mRNA expression levels of Bdnf, Ngf, Ntf4, Ntrk1, Ntrk2, Map2, Mapt, Gap43, Chrne, Colq, and Rapsn were quantified in a manner similar to Example 5.

For `NS(=O)(=O)Cc1noc2ccccc12` [Zonisamide, 3-sulfamoylmethyl-1,2-benzisoxazole], the “expression level of Bdnf” value was “unchanged”, the “gene expression level of Ngf” value was “increased” and the “gene expression level of Ntf4” value was “increased”. The “mRNA level of Gap43” value was “elevated”, the “mRNA level of Map2” value was “elevated” and the “mRNA level of Mapt” value was “elevated”. For the same molecule, the “mRNA level of Ntrk1” value was “increased” and the “mRNA level of Ntrk2” value was “increased”.
